Laboratory results: article PMC9574860, “Chemical Toolkit for PARK7: Potent, Selective, and High-Throughput” (Journal of Medicinal Chemistry, 2022)
Blank lines part the entries; values can stand above or below the compound they belong to.

Columns and labels:
[1] = target: T1, PARK7 (Homo sapiens, UniProt Q99497); test: High-throughput FP screen of covalent fragment library with JYQ-107; format: binding; design: GST (N, cleaved yes); made in house; host or cells: E. coli BL21(DE3) Rosetta2; conditions: HTS, 100 μM compound, PARK7 0.2 μM, 2 h preincubation, JYQ-107 20 nM, 1536-well
T1 sequence (Q99497 1-189): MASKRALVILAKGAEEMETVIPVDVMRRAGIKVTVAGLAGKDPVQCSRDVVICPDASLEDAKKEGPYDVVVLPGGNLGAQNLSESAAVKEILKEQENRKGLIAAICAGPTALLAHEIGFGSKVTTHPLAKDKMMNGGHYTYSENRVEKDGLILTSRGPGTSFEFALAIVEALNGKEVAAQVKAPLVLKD
Procedure: The screen was conducted using the conditions as described above in 1536-well plates (Corning 3724) with a reaction volume of 8 μL per well. The compound library containing 7887 covalent fragments was purchased at Enamine Ltd. and received as 100 mM DMSO stocks in 384 well LDV Echo plates (Labcyte LP-0200). Stock solutions of 0.26 μM PARK7 and 80 nM JYQ-107 were prepared. Using a Labcyte Echo550 acoustic dispenser, 8 nL of the DMSO stock solution of the library compounds was transferred from the source plates into the empty 1536-well screening plates to obtain a 100 μM final compound concentration. Next, PARK7 (6 μL, final concentration 0.2 μM) was dispensed using a Biotek MultiflowFX liquid dispenser and incubated for 2 h, followed by dispensing the probe JYQ-107 (2 μL, final concentration 20 nM). After 2 h incubation, the FP signal was recorded on a BMG Labtech PHERAstar plate reader (λex/em 480/520 nm). The relative loss of FP signal compared with reference controls was used to calculate the remaining enzyme activity.

[2] = target: T1, PARK7; test: DiFMUAc PARK7 activity assay; format: biochemical; design: GST (N, cleaved yes); made in house; host or cells: E. coli BL21(DE3) Rosetta2; conditions: PARK7 0.1 μM, 2 h preincubation, DiFMUAc 300 μM; for inhibition at 12.5 µM: 12.5 µM compound, read-out: DiFMuAc assay %Inhibiton (12.5 µM); for inhibition at 37.5 µM: 37.5 µM compound, read-out: DiFMuAc assay %Inhibiton (37.5 µM); for inhibition at 100 µM: 100 µM compound, read-out: DiFMuAc assay %Inhibiton (100 µM)
Procedure: Compounds were transferred using a Labcyte Echo550 acoustic dispenser to obtain a 12-point serial dilution of 0.001 to 100 μM. Next, PARK7 (15 μL, final concentration of 0.1 μM) was dispensed with a Biotek MultiFlowFX liquid dispenser and incubated for 1 h, followed by dispensing the substrate DiFMUAc (5 μL, final concentration of 300 μM). The fluorescence intensity (FI) signal was monitored with a BMG Labtech PHERAstar plate reader (λex/em 350/450 nm) for 1 h.
The validation was performed in the PBS buffer with a reaction volume of 20 μL per well in triplicate. […] Next, PARK7 (15 μL, final concentration 0.1 μM) was dispensed with a Biotek MultiFlowFX liquid dispenser and incubated for 2 h, followed by dispensing the substrate DiFMUAc (5 μL, final concentration 300 μM). The FI signal was monitored with a BMG Labtech PHERAstar plate reader (λex/em 350/450 nm) for 1 h. The increase of FI signal compared with reference controls was used to calculate the remaining enzyme activity. The inhibition percentage of these 22 compounds was plotted as a heatmap using GraphPad Prism 9.0.1 software. Color gradients indicate inhibition percentage, no inhibiton (white) and full inhibition (blue).

[3] = target: T1, PARK7; test: FP assay with Rhodamine110 probe JYQ-107 (IC50 and hit validation); format: binding; design: GST (N, cleaved yes); made in house; host or cells: E. coli BL21(DE3) Rosetta2; conditions: PARK7 0.2 μM, 1 h preincubation, JYQ-107 20 nM; for inhibition at 12.5 µM: 12.5 µM compound, read-out: FP assay %Inhibiton (12.5 µM); for inhibition at 37.5 µM: 37.5 µM compound, read-out: FP assay %Inhibiton (37.5 µM); for inhibition at 100 µM: 100 µM compound, read-out: FP assay %Inhibiton (100 µM)
Procedure: The assay was performed using the conditions as described above with a reaction volume of 20 μL per well in triplicate. Stock solutions of JYQ-88 of 1 and 0.1 mM were prepared. […] The FP signal was monitored with a BMG Labtech PHERAstar plate reader (λex/em 480/520 nm) for 2 h.
The validation was performed using the conditions as described above with a reaction volume of 20 μL per well in triplicate. […] The FP signal was monitored with a BMG Labtech PHERAstar plate reader (λex/em 480/520 nm) for 2 h. The relative loss of FP signal compared with reference controls was used to calculate the remaining enzyme activity. Inhibition percentage of these 40 compounds was plotted as a heatmap using GraphPad Prism 9.0.1 software. Color gradients indicate inhibition percentage, no inhibiton (white) and full inhibition (blue).

[4] = target: T1, PARK7; test: Gel-based competition assay in HEK293T cell lysate with probe JYQ-92; format: biochemical; design: GST (N, cleaved yes); made in house; host or cells: E. coli BL21(DE3) Rosetta2; conditions: fragment 0.1–50 μM 2 h 37 °C, then JYQ-92 1 μM 30 min, Figure 6E
Source text: We next assessed whether we could measure the inhibitory activity of an inhibitor against PARK7 in a cell lysate using JYQ-92 to label the remaining activity of PARK7. […] The disappearance of the labeling band is a measure for inhibition.

[5] = tested on: DUBs; test: DUB activity profiling in HEK293T cell lysate with general DUB probe Rho-Ub-PA; format: biochemical; conditions: compound 5 μM 1 h 37 °C, then Rho-Ub-PA 30 min, Figure S5
Procedure: Due to the structural similarity of PARK7 inhibitor JYQ-88 and UCHL1 inhibitor 8RK64 and the fact that many cyanimide-containing compounds have been identified as DUB inhibitors,[35],[37] we investigated the inhibitory potential of JYQ-88 and JYQ-92 toward DUBs. After treating the HEK293T cell lysate with JYQ-88 and JYQ-92, along with UCHL1 inhibitors, 6RK73 and 8RK64 as controls,[38] the remaining activity of DUBs was determined using the general DUB probe Rho-Ub-PA (Figure S5).[39]
Figure S5. Fluorescence labeling of DUBs to investigate their remaining activity by Rh-Ub-
PA after the treatment with PARK7 inhibitor JYQ-88 and probe JYQ-92. UCHL1 inhibitors,
6RK73 and 8RK64, were used as a control. HEK293T cell lysate was treated with 5 μM final
MOPS SDS running buffer (Novex, NuPAGE) and visualized by fluorescence scanning on a
Typhoon FLA 9500 (GE Healthcare Life Sciences) using a Rhodamine channel (λex/em
(1 picture or pasted object on this page, not shown here)

[6] = target: T2, UCHL1 (Homo sapiens, UniProt P09936); test: UCHL1 activity assay (Ub-Rho-Morpholine or Ub-AMC substrate); format: biochemical; conditions: UCHL1 1 nM, 1 h preincubation; read-out: UbRhoMP assay UCHL1 IC50
T2 sequence (P09936 1-223): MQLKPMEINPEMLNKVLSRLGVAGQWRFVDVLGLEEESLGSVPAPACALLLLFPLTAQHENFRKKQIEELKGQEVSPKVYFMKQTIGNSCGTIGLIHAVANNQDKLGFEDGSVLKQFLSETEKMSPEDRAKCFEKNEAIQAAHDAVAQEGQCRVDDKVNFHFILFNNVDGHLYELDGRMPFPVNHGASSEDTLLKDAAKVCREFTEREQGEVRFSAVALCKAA
Procedure: The assay was performed in a buffer containing 50 mM Tris·HCl, 100 mM NaCl at pH 7.5, 2.0 mM cysteine, 1 mg/mL 3-[(3-cholamidopropyl)dimethylammonio]propanesulfonic acid (CHAPS), and 0.5 mg/mL bovine serum albumin and conducted in a 384-well plate (Corning 3820) with a reaction volume 20 μL in triplicate. The compounds were dissolved in DMSO as 10, 1, and 0.1 mM stock solutions and were transferred to obtain a 12-point serial dilution of 0.05 to 200 μM. Next, UCHL1 (15 μL, final concentration of 1 nM) was dispensed with a Biotek MultiFlowFX liquid dispenser and incubated for 1 h, followed by dispensing the substrate Ub-Rho-Morpholine or Ub-AMC (5 μL, final concentration of 400 nM). The FI signal was monitored with a BMG Labtech PHERAstar plate reader (λex/em 487/535 nm or λex/em 350/450 nm) for 1 h. N-Ethylmaleimide (NEM, 10 mM) was used as a positive control (100% inhibition), and DMSO was used as a negative control (0% inhibition). All samples were normalized to the positive and negative controls and plotted against the inhibitor concentrations (in μM) using the built-in equation “[inhibitor] vs response – variable slope (four parameters), least-squares fit” with constraints “Bottom = 0” and “Top = 100” in GraphPad Prism 9.0.1 software to obtain the IC50 values.

[7] = target: T1, PARK7; test: Probe labeling of purified recombinant PARK7 (SDS-PAGE, fluorescence scanning); format: binding; design: GST (N, cleaved yes); made in house; host or cells: E. coli BL21(DE3) Rosetta2; conditions: purified PARK7 1 μM, 1 h 37 °C; Figure 4A
Source text: PARK7 inhibitor JYQ-88 was further converted into activity-based probes by installing SulfoCy5, Rhodamine110, or BodipyFL. We took advantage of the azide moiety in JYQ-88 and conjugated alkyne versions of these dyes using the copper(I)-catalyzed azide alkyne cycloaddition (CuAAC) to obtain compounds JYQ-92, JYQ-93, and JYQ-107 (Scheme 2). We next investigated the ability of the probes to label and visualize PARK7. […] The SulfoCy5 probe JYQ-92 and Rhodamine110 probe JYQ-107 labeled PARK7 already at 1 μM, while the BodipyFL probe JYQ-93 was less efficient than the other probes as PARK7 labeling was only observed from 5 μM.
All the labeling assays were performed in Tris buffer (50 mM Tris–HCl, 150 mM NaCl, 2 mM TCEP, pH 7.5). For labeling with the 8RK59 probe, 1 μM final concentrations of UCHL1 and PARK7 were individually or together incubated with 2 μM final concentrations of 8RK59 for 30 min at 37 °C, followed by protein visualization. For labeling with JYQ-92, JYQ-93, and JYQ-107, 1 μM final concentration of PARK7 was incubated with different concentrations (0, 0.1, 0.5, 1, 2, 5, and 10 μM) of the indicated probes for 1 h at 37 °C. […] These samples were resolved by SDS-PAGE using precast Bis-Tris gels (Invitrogen, NuPAGE) with MES SDS running buffer (Novex, NuPAGE).

Inhibition % [1]: -0.36%
Compound: NCC1CCN(C(=O)C=Cc2ccc(Cl)s2)C1 (stereo not shown) [Z2242910917, 1-[3-(aminomethyl)pyrrolidin-1-yl]-3-(5-chlorothiophen-2-yl)prop-2-en-1-one]

Inhibition % [1]: -0.97%
Compound: N#CC=Cc1cccc2cccnc12 [Z3236183481, 3-(quinolin-8-yl)prop-2-enenitrile]

Inhibition % [1]: 1.97%
Compound: CC1(C)CN(C(=O)CC2OCCCO2)CC2(CCCC2)O1 [Z1953185127, 1-{7,7-dimethyl-6-oxa-9-azaspiro[4.5]decan-9-yl}-2-(1,3-dioxan-2-yl)ethan-1-one]

Inhibition % [1]: 1.76%
Compound: C#CC(=O)N1CCc2cc(C(=O)O)ccc21 [Z3227873366, 1-(prop-2-ynoyl)-2,3-dihydro-1H-indole-5-carboxylic acid]

inhibition at 12.5 µM [2]: 95.8% | inhibition at 37.5 µM [2]: 95.2% | inhibition at 100 µM [2]: 97.1% | inhibition at 12.5 µM [3]: 100% | inhibition at 37.5 µM [3]: 100% | inhibition at 100 µM [3]: 100% | Ability to inhibit PARK7 in a cell lysate [4]: confirmed
Compound: CCC(C)c1ccc(NC(=O)CCl)cc1 (stereo not shown) [Z56886389]

Inhibition % [1]: 1.56%
Compound: O=C(NC1CCN(Cc2ccccc2)CC1)n1ccnc1 [Z319217184, N-(1-benzylpiperidin-4-yl)-1H-imidazole-1-carboxamide]

Compound: N#CN1CC[C@H](C(=O)Nc2ncc(N3CCOCC3)s2)C1 [6RK73, reference compound]
Effect on remaining DUB activity (Rho-Ub-PA labeled bands) [5]: disappearance of the UCHL1 band

IC50 [6]: 23 µM | Probe concentration from which PARK7 labeling was observed [7]: 5 µM
Compound: CC1=CC(C)=[N+]2C1=C(CCCCc1cn(CC(=O)N3CCc4nc(NC(=O)[C@@H]5CCN(C#N)C5)sc4C3)nn1)c1c(C)cc(C)n1[B-]2(F)F [JYQ-93]

inhibition at 12.5 µM [2]: 97.9% | inhibition at 37.5 µM [2]: 97.6% | inhibition at 100 µM [2]: 97.3% | inhibition at 12.5 µM [3]: 100% | inhibition at 37.5 µM [3]: 100% | inhibition at 100 µM [3]: 100% | Ability to inhibit PARK7 in a cell lysate [4]: confirmed
Compound: O=C(O)c1csc(C(=O)CCl)c1 [Z763366298]
